Assay results as given in patent publication EP0584290B1, “ENDOTHELIN ANTAGONISTS” (WARNER-LAMBERT COMPANY, priority 1991, dated 1992).
Square brackets hold non-standard residues; d marks the D form. Ends that are not written are not given here. Peptide text beside a SMILES is read from it. d1Nal = N[C@H](Cc1cccc2ccccc12)C(=O)O

Key:
Rat-1 cells = molecular target: T1, Rat-1 cells (Rattus norvegicus, UniProt P26684); experiment: Endothelin-stimulated inositol phosphate (IP) accumulation in Rat-1 cells; format: cell-based
T1 sequence (P26684 21-426): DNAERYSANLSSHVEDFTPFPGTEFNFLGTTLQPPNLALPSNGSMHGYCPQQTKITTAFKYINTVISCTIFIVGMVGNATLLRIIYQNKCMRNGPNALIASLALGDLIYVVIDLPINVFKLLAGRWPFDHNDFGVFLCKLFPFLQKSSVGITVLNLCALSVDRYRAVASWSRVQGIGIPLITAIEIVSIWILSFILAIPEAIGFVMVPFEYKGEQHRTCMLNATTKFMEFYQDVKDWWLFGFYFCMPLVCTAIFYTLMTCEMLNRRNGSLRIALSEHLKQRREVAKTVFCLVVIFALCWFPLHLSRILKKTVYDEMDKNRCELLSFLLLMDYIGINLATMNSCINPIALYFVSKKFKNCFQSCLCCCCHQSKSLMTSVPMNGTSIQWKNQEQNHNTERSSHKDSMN
Experimental: The compounds of Formula I are valuable antagonists of endothelin. […] Thus, the compounds of Formula I were tested for their ability to inhibit [^125I]-ET-1([^125I]-Endothelin-1) binding in a receptor assay. The binding of the compounds of Formula I is determined by incubation (37°C, 2 hours) of a compound of Formula I with [^125I]-ET-1 and the tissue (rat heart ventricle (10 µg)) in 50 mM Tris(hydroxymethyl)aminomethane hydrochloride (Tris-HCl) (pH 7.4), 5 mM ethylenediamine tetraacetic acid (EDTA), 2 mM ethylene glycol bis(β-aminoethyl ether)N,N,N',N'-tetraacetic acid (EGTA), 100 µM phenylmethylsulfonyl fluoride (PMSF), and 100 µM bacitracin containing protease inhibitors (total volume of 0.5 mL). IC50 values are calculated by weighing nonlinear regression curve-fitting to the mass-action (Langmuir) equation. The functional activity of compounds of Formula I is determined in Rat-1 cells by measuring intracellular levels of second messengers. Thus, cells were prelabeled with [^3H]-inositol and endothelin-stimulated accumulation of total [^3H]-inositol phosphates in the presence of Li^+ is monitored using anion exchange chromatography as described by Muldoon, L. L., et al, Journal of Biological Chemistry, Volume 264, pages 8529-8536 (1989) and Dudley, D. T., et al, Molecular Pharmacology, Volume 38, pages 370-377 (1990). […]

[1] = molecular target: endothelin receptor, rat heart ventricle; experiment: [125I]-ET-1 binding assay in rat heart ventricle; details: [125I]-ET-1, rat heart ventricle (10 µg), 37°C, 2 hours
Experimental: The compounds of Formula I are valuable antagonists of endothelin. […] Thus, the compounds of Formula I were tested for their ability to inhibit [^125I]-ET-1([^125I]-Endothelin-1) binding in a receptor assay. The binding of the compounds of Formula I is determined by incubation (37°C, 2 hours) of a compound of Formula I with [^125I]-ET-1 and the tissue (rat heart ventricle (10 µg)) in 50 mM Tris(hydroxymethyl)aminomethane hydrochloride (Tris-HCl) (pH 7.4), 5 mM ethylenediamine tetraacetic acid (EDTA), 2 mM ethylene glycol bis(β-aminoethyl ether)N,N,N',N'-tetraacetic acid (EGTA), 100 µM phenylmethylsulfonyl fluoride (PMSF), and 100 µM bacitracin containing protease inhibitors (total volume of 0.5 mL). IC50 values are calculated by weighing nonlinear regression curve-fitting to the mass-action (Langmuir) equation. The functional activity of compounds of Formula I is determined in Rat-1 cells by measuring intracellular levels of second messengers. Thus, cells were prelabeled with [^3H]-inositol and endothelin-stimulated accumulation of total [^3H]-inositol phosphates in the presence of Li^+ is monitored using anion exchange chromatography as described by Muldoon, L. L., et al, Journal of Biological Chemistry, Volume 264, pages 8529-8536 (1989) and Dudley, D. T., et al, Molecular Pharmacology, Volume 38, pages 370-377 (1990). Antagonist activity is assessed as the ability of added compounds to reduce endothelin-stimulated inositol phosphate accumulation. Antagonist activity was also measured by the ability of added compounds to reduce endothelin-stimulated arachidonic acid release in cultured vascular smooth muscle cells as (AAR) described in Reynolds, E., Mok, K., Faseb J., 1991, 5, A1066. The data in the table show the endothelin antagonist activity of representative compounds of Formula I. TABLE 1

ET receptor = details: relative to ET-1; cited from earlier work

Compound | IC50 [1] [µM] | further results
CC[C@H](C)[C@H](NC(=O)[C@H](CC(=O)O)NC(=O)[C@H](CC(C)C)NC(=O)[C@H](N)Cc1cccc2ccccc12)C(=O)N[C@H](C(=O)N[C@@H](Cc1c[nH]c2ccccc12)C(=O)O)[C@@H](C)CC [Example 4, D-1-Nal-Leu-Asp-Ile-Ile-Trp] (H-[d1Nal]LDIIW-OH) | – | inhibition at 50 µM (Rat-1 cells): 53%
CC[C@H](C)[C@H](NC(=O)[C@H](CC(=O)O)NC(=O)[C@H](CC(C)C)NC(=O)[C@@H](Cc1ccccc1)NC(C)=O)C(=O)N[C@H](C(=O)N[C@@H](Cc1c[nH]c2ccccc12)C(=O)O)[C@@H](C)CC [Example 1, Ac-D-Phe-Leu-Asp-Ile-Ile-Trp] (Ac-[dF]LDIIW-OH) | 0.72 | –
CC[C@H](C)[C@H](NC(=O)[C@H](CC(=O)O)NC(=O)[C@H](CC(C)C)NC(=O)[C@@H](Cc1ccccc1)NC(C)=O)C(=O)N[C@@H](Cc1c[nH]c2ccccc12)C(=O)O [Example 6, Ac-D-Phe-Leu-Asp-Ile-Trp] (Ac-[dF]LDIW-OH) | 24.5 | –
CC[C@H](C)[C@H](NC(=O)[C@H](CC(=O)O)NC(=O)[C@@H](Cc1ccccc1)NC(C)=O)C(=O)N[C@H](C(=O)N[C@@H](Cc1c[nH]c2ccccc12)C(=O)O)[C@@H](C)CC [Example 11, Ac-D-Phe-Asp-Ile-Ile-Trp] (Ac-[dF]DIIW-OH) | 2.15 | –
ET[1-20]: ET-1 analogue without the C-terminal amino acid (Trp-21) (CSCSSLMDKECVYFCHLDII; not fully specified (bridges); ends and bridges not checked; UniProt P05305 53-72, looked up, fragment) | – | less functional activity (ET receptor): approximately 1000 fold
CC[C@@H](C)[C@@H](NC(=O)[C@@H](NC(=O)[C@@H](CC(=O)O)NC(=O)[C@H](CC(C)C)NC(=O)[C@@H](Cc1c[nH]cn1)NC(C)=O)[C@@H](C)CC)C(=O)N[C@@H](Cc1c[nH]c2ccccc12)C(=O)O [Example 7, Ac-D-His-Leu-D-Asp-Ile-D-Ile-Trp] (Ac-[dH]L[dD]I[dI]W-OH) | 6.03 | –
